Results published in PMC6522372 (Nature chemical biology, 2019).
Where a chain is given by its changes, count along the chain named. Numbers in names are those of the source.

Assays:
McsB [1] = molecular target: T1, McsB (Geobacillus stearothermophilus, UniProt P0DMM5); assay: SPR, steady-state; assay type: binding
T1 sequence (P0DMM5 1-363): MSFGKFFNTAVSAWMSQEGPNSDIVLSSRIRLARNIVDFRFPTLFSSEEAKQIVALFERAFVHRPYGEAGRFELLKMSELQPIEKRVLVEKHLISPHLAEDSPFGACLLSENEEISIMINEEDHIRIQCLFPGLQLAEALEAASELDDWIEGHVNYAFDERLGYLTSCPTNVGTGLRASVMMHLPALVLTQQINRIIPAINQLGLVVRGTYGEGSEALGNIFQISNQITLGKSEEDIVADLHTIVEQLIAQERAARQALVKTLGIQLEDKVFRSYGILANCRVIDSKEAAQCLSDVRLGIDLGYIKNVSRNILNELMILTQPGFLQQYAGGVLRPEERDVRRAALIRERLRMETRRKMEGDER

McsB [2] = molecular target: T2, McsB (Geobacillus stearothermophilus, UniProt P0DMM5); assay: X-ray crystal structure; assay type: binding
T2 sequence (P0DMM5 1-355): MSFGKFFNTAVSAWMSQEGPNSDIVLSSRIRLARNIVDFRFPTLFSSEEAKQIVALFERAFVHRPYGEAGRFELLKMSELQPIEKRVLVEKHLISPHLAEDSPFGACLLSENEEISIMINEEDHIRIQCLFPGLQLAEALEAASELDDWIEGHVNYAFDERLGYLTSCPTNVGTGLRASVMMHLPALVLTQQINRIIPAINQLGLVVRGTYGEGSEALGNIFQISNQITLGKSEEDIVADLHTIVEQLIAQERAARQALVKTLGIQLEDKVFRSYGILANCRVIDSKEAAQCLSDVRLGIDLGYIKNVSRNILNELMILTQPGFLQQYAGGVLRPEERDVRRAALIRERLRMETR

SEC-MALS = molecular target: the molecule itself; assay: SEC-MALS

Nc1ncnc2c1ncn2[C@@H]1O[C@H](COP(=O)(O)OP(=O)(O)O)[C@@H](O)[C@H]1O [ADP]
Kd (McsB [1]): 208 ± 60 µM

Nc1ncnc2c1ncn2[C@@H]1O[C@H](COP(=O)(O)OP(N)(=O)O)[C@@H](O)[C@H]1O [AMP-PN]
X-ray crystal structure (soak with AMP-PNP, hydrolysed to AMP-PN) (McsB [2]): the Mg⋅ATP-binding site shows a clear electron density for AMP-PN

Nc1ncnc2c1ncn2[C@@H]1O[C@H](COP(=O)(O)OP(=O)(O)OP(=O)(O)O)[C@@H](O)[C@H]1O [ATP]
Kd (McsB [1]): 262 ± 27 µM

B1: full-length McsB R338A/D339A (enzyme)
chain: T1 sequence (P0DMM5 1-363) with R338A, D339A
stoichiometry N (SEC-MALS): 2
